Results published in PubChem BioAssay (NCI).
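1) Cells in 96-well plates. 2) Compound, 48 h, 5 concentrations. 3) Linear interpolation between surrounding doses. 4) Unreached endpoint = highest concentration. Abbreviation: GI50, concentration required for 50% inhibition of growth. TGI: total growth inhibition.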

Tests used:
Experiment in all cases: NCI-60 cell line screen, 48 h
[1] = tested on: M14 melanoma
[2] = tested on: SNB-19 CNS
[3] = tested on: NCI-H226 lung
[4] = tested on: HL-60(TB) leukemia
[5] = tested on: NCI-H23 lung
[6] = tested on: SF-295 CNS
[7] = tested on: LOX IMVI melanoma
[8] = tested on: SW-620 colon
[9] = tested on: A549 NSCLC
[10] = tested on: RPMI-8226 leukemia
[11] = tested on: TK-10 renal
[12] = tested on: RXF 393 renal
[13] = tested on: CCRF-CEM leukemia
[14] = tested on: SNB-75 CNS
[15] = tested on: SK-OV-3 ovarian
[16] = tested on: U251 CNS
[17] = tested on: HCT-116 colon
[18] = tested on: UO-31 renal
[19] = tested on: UACC-257 melanoma
[20] = tested on: OVCAR-8 ovarian
[21] = tested on: BT-549 breast
[22] = tested on: 786-0 renal
[23] = tested on: MDA-MB-435
[24] = tested on: SN12C renal
[25] = tested on: MDA-MB-468 breast
[26] = tested on: HS 578T breast
[27] = tested on: UACC-62 melanoma
[28] = tested on: ACHN renal
[29] = tested on: CAKI-1 renal
[30] = tested on: DU-145 prostate
[31] = tested on: MDA-MB-231 breast
[32] = tested on: EKVX NSCLC
[33] = tested on: SF-268 CNS
[34] = tested on: MCF7 breast
[35] = tested on: HOP-92 NSCLC
[36] = tested on: OVCAR-4 ovarian
[37] = tested on: HCC-2998 colon
[38] = tested on: HT29 colon
[39] = tested on: OVCAR-3 ovarian
[40] = tested on: HOP-62 NSCLC
[41] = tested on: SF-539 CNS
[42] = tested on: A498 renal
[43] = tested on: NCI/ADR-RES ovarian
[44] = tested on: COLO 205 colon
[45] = tested on: SK-MEL-5 melanoma
[46] = tested on: T-47D breast
[47] = tested on: OVCAR-5 ovarian
[48] = tested on: SK-MEL-28 melanoma
[49] = tested on: PC-3 prostate
[50] = tested on: HCT-15 colon
[51] = tested on: IGROV1 ovarian
[52] = tested on: NCI-H522 lung
[53] = tested on: MALME-3M melanoma
[54] = tested on: KM12 colon
[55] = tested on: NCI-H460 lung
[56] = tested on: SK-MEL-2 melanoma
[57] = tested on: MOLT-4 leukemia
[58] = tested on: K-562 leukemia
[59] = tested on: SR leukemia

Molecule `CN1CCN(c2ccc(Nc3nc(NCCCNC(=O)C4CCCCC4)c4sccc4n3)cc2)CC1` has a GI50 [1] of 4.23 µM, a TGI [1] of 16 µM and a GI50 [2] of 22.1 µM. It also gave a TGI [2] of 47.1 µM, a GI50 [3] of 12.6 µM and a TGI [3] of 26.3 µM. For the same molecule, the GI50 [4] was 4.55 µM, the TGI [4] was 23.3 µM and the GI50 [5] was 14.1 µM. The TGI [5] was 29.1 µM, the GI50 [6] was 12.9 µM and the TGI [6] was 26.3 µM. It also gave a GI50 [7] of 10.7 µM, a TGI [7] of 23.1 µM and a GI50 [8] of 17.3 µM. The TGI [8] was 36.4 µM, the GI50 [9] was 20.7 µM and the TGI [9] was 80.8 µM. It also gave a GI50 [10] of 3.92 µM, a TGI [10] of 19.9 µM and a GI50 [11] of 24.6 µM. For the same molecule, the TGI [11] was 51.7 µM, the GI50 [12] was 5.49 µM and the TGI [12] was 20 µM. It also gave a GI50 [13] of 3.77 µM, a TGI [13] of 37.6 µM and a GI50 [14] of 11.2 µM. The TGI [14] was 24.7 µM, the GI50 [15] was 23.4 µM and the TGI [15] was 59.2 µM. For the same molecule, the GI50 [16] was 4.64 µM, the TGI [16] was 19.9 µM and the GI50 [17] was 3.98 µM. For the same molecule, the TGI [17] was 18.5 µM, the GI50 [18] was 11.9 µM and the TGI [18] was 24.6 µM. It also gave a GI50 [19] of 3.61 µM, a TGI [19] of 14.9 µM and a GI50 [20] of 16 µM. It also gave a TGI [20] of 36.7 µM, a GI50 [21] of 13.3 µM and a TGI [21] of 27.3 µM. For the same molecule, the GI50 [22] was 10.8 µM, the TGI [22] was 26.4 µM and the GI50 [23] was 15.6 µM. The TGI [23] was 30.8 µM, the GI50 [24] was 14.2 µM and the TGI [24] was 29.4 µM. The GI50 [25] was 2960 nM, the TGI [25] was 17.2 µM and the GI50 [26] was 12.8 µM. For the same molecule, the TGI [26] was 36.2 µM, the GI50 [27] was 15.1 µM and the TGI [27] was 28.6 µM. The GI50 [28] was 15.6 µM, the TGI [28] was 35.1 µM and the GI50 [29] was 14.5 µM. It also gave a TGI [29] of 30.5 µM, a GI50 [30] of 14.9 µM and a TGI [30] of 30.5 µM. It also gave a GI50 [31] of 13.2 µM, a TGI [31] of 30.8 µM and a GI50 [32] of 15.8 µM. The TGI [32] was 33.9 µM, the GI50 [33] was 10.4 µM and the TGI [33] was 40.7 µM. The GI50 [34] was 10 µM, the TGI [34] was 24 µM and the GI50 [35] was 10.6 µM. It also gave a TGI [35] of 34.3 µM, a GI50 [36] of 15.7 µM and a TGI [36] of 57.7 µM. For the same molecule, the GI50 [37] was 13.8 µM, the TGI [37] was 26.9 µM and the GI50 [38] was 4.28 µM. It also gave a TGI [38] of 17 µM, a GI50 [39] of 16.2 µM and a TGI [39] of 33.5 µM. For the same molecule, the GI50 [40] was 18.2 µM, the TGI [40] was 36.3 µM and the GI50 [41] was 3.15 µM. For the same molecule, the TGI [41] was 12.8 µM, the GI50 [42] was 22 µM and the TGI [42] was 37.7 µM. For the same molecule, the GI50 [43] was 21.1 µM, the TGI [43] was 54.5 µM and the GI50 [44] was 17.7 µM. The TGI [44] was 38.2 µM, the GI50 [45] was 8.82 µM and the TGI [45] was 21 µM. The GI50 [46] was 11.4 µM, the TGI [46] was 37.9 µM and the GI50 [47] was 16.1 µM. For the same molecule, the TGI [47] was 34.6 µM, the GI50 [48] was 6.24 µM and the TGI [48] was 19.5 µM. It also gave a GI50 [49] of 12.4 µM, a TGI [49] of 42.2 µM and a GI50 [50] of 5.77 µM. For the same molecule, the TGI [50] was 25.6 µM, the GI50 [51] was 14 µM and the TGI [51] was 30.8 µM. The GI50 [52] was 13 µM, the TGI [52] was 27 µM and the GI50 [53] was 7.31 µM. The TGI [53] was 19.8 µM, the GI50 [54] was 19.4 µM and the TGI [54] was 44.9 µM. The GI50 [55] was 14.6 µM, the TGI [55] was 30.8 µM and the GI50 [56] was 18.7 µM. It also gave a TGI [56] of 33.6 µM, a GI50 [57] of 3.19 µM and a TGI [57] of 20.8 µM. The GI50 [58] was 2720 nM, the TGI [58] was 47 µM and the GI50 [59] was 2130 nM. The TGI [59] was 6.3 µM.
